Common to all, as to assay type: cell-based
Experiment [1] concerns the target T1, hGIPR (Homo sapiens, UniProt P48546).
T1 construct: expressed in transfected cells
T1 sequence (P48546 22-466): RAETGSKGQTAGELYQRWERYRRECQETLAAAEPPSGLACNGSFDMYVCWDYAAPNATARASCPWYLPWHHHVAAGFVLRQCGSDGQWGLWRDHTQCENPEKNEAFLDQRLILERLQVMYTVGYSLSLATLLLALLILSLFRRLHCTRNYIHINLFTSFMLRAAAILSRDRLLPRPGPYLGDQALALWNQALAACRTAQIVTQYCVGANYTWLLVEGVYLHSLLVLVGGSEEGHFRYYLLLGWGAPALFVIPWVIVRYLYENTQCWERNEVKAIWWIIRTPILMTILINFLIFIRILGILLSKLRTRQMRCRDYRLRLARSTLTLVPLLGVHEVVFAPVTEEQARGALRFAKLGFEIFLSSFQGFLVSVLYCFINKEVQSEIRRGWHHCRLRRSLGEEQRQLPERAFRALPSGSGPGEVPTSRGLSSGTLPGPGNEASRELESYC
The experiment is described as follows: Functional cAMP formation (HTRF) in HEK-293 clonal cells expressing hGIPR, 0.1% bovine casein, without or with 1.0% human serum albumin. Particulars: 37° C.; for Emax: percent of maximal response to GIP(1-42)NH2, read-out: hGIPR Emax, % ± SEM; for EC50: cAMP, read-out: hGIPR EC50, nM (SEM, n). Summed up: (§1)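 Cells were stimulated with peptide for 30 min at 37° C, then lysed in buffer carrying cAMP-d2 and anti-cAMP Eu3+-cryptate for a competitive HTRF read after at least 60 min at room temperature. The 665/620 nm ratio was converted to nM cAMP against a standard curve.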
(In general: cAMP levels reflect the balance of adenylyl cyclase and phosphodiesterase activity.)

Experiment [2] deals with T2, hGCGR (Homo sapiens, UniProt P47871).
T2 construct: expressed in transfected cells
Briefly: Functional cAMP formation (HTRF) in HEK-293 clonal cells expressing hGCGR, 0.1% bovine casein, without or with 1.0% human serum albumin. The following applies: 37° C., read-out: hGCGR EC50, nM (SEM, n). The essentials:
as §1

The target of experiment [3] is hGLP-1R (Homo sapiens, UniProt P43220). The experiment is described as follows: Functional cAMP formation (HTRF) in HEK-293 clonal cells expressing hGLP-1R, 0.1% bovine casein, without or with 1.0% human serum albumin. Details: expressed in transfected cells. The following applies: 37° C.; for EC50: geometric mean, read-out: hGLP-1R EC50, nM (SEM, n); for Emax: percent of maximal response to GLP-1(7-36)NH2, read-out: hGLP-1R Emax, % ± SEM. The essentials: as §1

Where [4] appears, read: HEK293, cAMP, 0.1% bovine casein and 1.0% human serum albumin.
Where [5] appears, read: 0.1% bovine casein (no human serum albumin), geometric mean.
The mark [6] stands for this setting: cAMP, 0.1% bovine casein (no human serum albumin), geometric mean.
The mark [7] stands for this setting: cAMP, 0.1% bovine casein and 1.0% human serum albumin, geometric mean (SEM, n).
Where [8] appears, read: cAMP, 0.1% bovine casein (no human serum albumin).
The mark [9] stands for this setting: HEK293, 0.1% bovine casein and 1.0% human serum albumin.
Where [10] appears, read: 0.1% bovine casein and 1.0% human serum albumin, geometric mean.
Setting [11] is: HEK293, cAMP, 0.1% bovine casein, arithmetic mean.

Where two headings read alike, the source gives them in different places. Where a SMILES comes first, the peptide text is derived from it. Side-chain parts run from the residue outwards. [ ]: non-standard residue; d: D form. The star is where a group is joined. αMePhe(2-F) = C[C@](N)(Cc1ccccc1F)C(=O)O; C14 diacid = O=C(O)CCCCCCCCCCCCC(=O)*; αMeY = C[C@](N)(Cc1ccc(O)cc1)C(=O)O; αMeL = CC(C)C[C@](C)(N)C(=O)O; Orn = NCCC[C@H](N)C(=O)O; AEEA = NCCOCCOCC(=O)O; Aib = CC(C)(N)C(=O)O

T2 sequence (P47871 26-477): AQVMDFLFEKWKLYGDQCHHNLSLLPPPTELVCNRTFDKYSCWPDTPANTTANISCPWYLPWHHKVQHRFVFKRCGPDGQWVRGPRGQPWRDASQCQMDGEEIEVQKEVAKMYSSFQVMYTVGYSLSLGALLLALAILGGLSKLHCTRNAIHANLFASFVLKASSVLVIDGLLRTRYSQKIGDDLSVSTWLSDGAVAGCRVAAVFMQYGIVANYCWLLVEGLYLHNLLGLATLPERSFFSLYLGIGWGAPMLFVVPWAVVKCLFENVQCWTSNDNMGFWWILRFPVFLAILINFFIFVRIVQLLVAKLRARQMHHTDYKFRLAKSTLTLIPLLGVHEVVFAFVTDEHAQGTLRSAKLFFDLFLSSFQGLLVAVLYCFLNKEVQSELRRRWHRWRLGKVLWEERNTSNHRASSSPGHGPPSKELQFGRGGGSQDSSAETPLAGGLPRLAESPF
Sequence of hGLP-1R (P43220 24-463): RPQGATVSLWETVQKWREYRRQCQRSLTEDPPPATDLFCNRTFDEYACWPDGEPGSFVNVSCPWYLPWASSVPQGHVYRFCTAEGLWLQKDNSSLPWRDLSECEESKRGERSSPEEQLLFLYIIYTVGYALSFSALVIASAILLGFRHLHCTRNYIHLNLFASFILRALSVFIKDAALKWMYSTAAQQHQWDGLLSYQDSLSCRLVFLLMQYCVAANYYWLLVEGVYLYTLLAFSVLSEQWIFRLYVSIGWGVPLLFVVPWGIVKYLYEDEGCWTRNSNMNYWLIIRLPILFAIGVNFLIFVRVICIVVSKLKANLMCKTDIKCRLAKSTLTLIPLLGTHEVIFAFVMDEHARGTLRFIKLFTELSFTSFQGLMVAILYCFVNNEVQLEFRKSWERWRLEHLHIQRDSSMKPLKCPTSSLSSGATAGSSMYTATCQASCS

Take `CC[C@H](C)[C@H](NC(=O)[C@H](CC(C)C)NC(=O)[C@](C)(Cc1ccc(O)cc1)NC(=O)[C@@H](CCC(=O)O)NC(=O)[C@@H](NC(=O)[C@H](Cc1ccccc1)NC(=O)[C@H](CCC(=O)O)NC(=O)C(C)(C)NC(=O)[C@H](CCC(N)=O)NC(=O)[C@H](C)NC(=O)[C@H](CCCCNC(=O)COCCOCCNC(=O)COCCOCCNC(=O)CC[C@H](NC(=O)CCCCCCCCCCCCC(=O)O)C(=O)O)NC(=O)[C@H](CCCN)NC(=O)[C@H](CC(=O)O)NC(=O)[C@H](CC(C)C)NC(=O)[C@](C)(CC(C)C)NC(=O)[C@@H](NC(=O)C(C)(C)NC(=O)[C@H](Cc1ccncc1)NC(=O)[C@H](CC(=O)O)NC(=O)[C@H](CO)NC(=O)[C@@H](NC(=O)[C@](C)(Cc1ccccc1F)NC(=O)[C@@H](NC(=O)CNC(=O)[C@H](CCC(=O)O)NC(=O)C(C)(C)NC(=O)[C@@H](N)Cc1ccc(O)cc1)[C@@H](C)O)[C@@H](C)O)[C@@H](C)CC)[C@@H](C)CC)C(=O)N[C@@H](CCCCNC(=O)COCCOCCNC(=O)COCCOCCNC(=O)CC[C@H](NC(=O)CCCCCCCCCCCCC(=O)O)C(=O)O)C(=O)NCC(=O)NCC(=O)N1CCC[C@H]1C(=O)N[C@@H](CO)C(=O)N[C@@H](CO)C(=O)NCC(=O)N[C@@H](C)C(=O)N1CCC[C@H]1C(=O)N1CCC[C@H]1C(=O)N1CCC[C@H]1C(=O)N[C@@H](CO)C(N)=O` [Example 358]: the maximal response (Emax) (in general, the size of the effect at its maximum, as opposed to the concentration needed) in experiment [1] (setting [4]) worked out at 86.2%. Further, the EC50 (in general, the concentration needed to bring the measured effect to its halfway point) in experiment [1] (setting [5]) is 0.0137 nM; in experiment [1] (0.1% bovine casein and 1.0% human serum albumin, geometric mean (SEM, n)), 2.06 nM; in experiment [2] (setting [6]), more than 10100 nM; in experiment [2] (setting [7]), more than 9950 nM; in experiment [3] (setting [8]), 0.773 nM.
Regarding `CCCCCCCCCCCC(=O)N[C@@H](CCC(=O)NCCOCCOCC(=O)NCCOCCOCC(=O)NCCCC[C@H](NC(=O)[C@H](CO)NC(=O)[C@@H]1CCCN1C(=O)[C@@H]1CCCN1C(=O)[C@@H]1CCCN1C(=O)[C@H](C)NC(=O)CNC(=O)[C@H](CO)NC(=O)[C@H](CO)NC(=O)[C@@H]1CCCN1C(=O)CNC(=O)CNC(=O)[C@H](CCC(=O)O)NC(=O)[C@@H](NC(=O)[C@H](CC(C)C)NC(=O)[C@](C)(Cc1ccc(O)cc1)NC(=O)[C@@H](CCC(=O)O)NC(=O)[C@@H](NC(=O)[C@H](Cc1ccccc1)NC(=O)[C@H](Cc1ccncc1)NC(=O)C(C)(C)NC(=O)[C@H](CCC(N)=O)NC(=O)[C@H](C)NC(=O)[C@H](CCCCNC(=O)COCCOCCNC(=O)COCCOCCNC(=O)CC[C@H](NC(=O)CCCCCCCCCCC)C(=O)O)NC(=O)[C@H](CCCN)NC(=O)[C@H](CC(=O)O)NC(=O)[C@H](CC(C)C)NC(=O)[C@](C)(CC(C)C)NC(=O)[C@@H](NC(=O)C(C)(C)NC(=O)[C@H](Cc1ccncc1)NC(=O)[C@H](CC(=O)O)NC(=O)[C@H](CO)NC(=O)[C@@H](NC(=O)[C@](C)(Cc1ccccc1F)NC(=O)[C@@H](NC(=O)CNC(=O)[C@H](CCC(=O)O)NC(=O)C(C)(C)NC(=O)[C@@H](N)Cc1ccc(O)cc1)[C@@H](C)O)[C@@H](C)O)[C@@H](C)CC)[C@@H](C)CC)[C@@H](C)CC)C(N)=O)C(=O)O` [Example 420], the Emax came to 89.7% in experiment [1] (setting [4]) and 109% in experiment [3] (setting [4]). Moreover, the EC50 in experiment [1] (setting [5]) is 0.00964 nM; in experiment [2] (setting [6]), more than 9950 nM; in experiment [2] (setting [7]) it was more than 9950 nM; in experiment [3] (setting [8]), 0.123 nM.
On to `CC[C@H](C)[C@H](NC(=O)[C@H](CC(C)C)NC(=O)[C@](C)(Cc1ccc(O)cc1)NC(=O)[C@@H](CCC(=O)O)NC(=O)[C@@H](NC(=O)[C@H](Cc1ccccc1)NC(=O)[C@H](CCC(=O)O)NC(=O)C(C)(C)NC(=O)[C@H](CCC(N)=O)NC(=O)[C@H](C)NC(=O)[C@H](CCCCNC(=O)COCCOCCNC(=O)COCCOCCNC(=O)CC[C@H](NC(=O)CCCCCCCCCCCCC(=O)O)C(=O)O)NC(=O)[C@H](CCCN)NC(=O)[C@H](CC(=O)O)NC(=O)[C@H](CC(C)C)NC(=O)[C@](C)(CC(C)C)NC(=O)[C@@H](NC(=O)[C@H](CO)NC(=O)[C@H](Cc1ccc2ccccc2c1)NC(=O)[C@H](CC(=O)O)NC(=O)[C@H](CO)NC(=O)[C@@H](NC(=O)[C@](C)(Cc1ccccc1F)NC(=O)[C@@H](NC(=O)CNC(=O)[C@H](CCC(=O)O)NC(=O)C(C)(C)NC(=O)[C@@H](N)Cc1ccc(O)cc1)[C@@H](C)O)[C@@H](C)O)[C@@H](C)CC)[C@@H](C)CC)C(=O)N[C@@H](CCC(=O)O)C(=O)NCC(=O)NCC(=O)N1CCC[C@H]1C(=O)N[C@@H](CO)C(=O)N[C@@H](CO)C(=O)NCC(=O)N[C@@H](C)C(=O)N1CCC[C@H]1C(=O)N1CCC[C@H]1C(=O)N1CCC[C@H]1C(=O)N[C@@H](CO)C(=O)N[C@@H](CCCCNC(=O)COCCOCCNC(=O)COCCOCCNC(=O)CC[C@H](NC(=O)CCCCCCCCCCCCC(=O)O)C(=O)O)C(N)=O` [Example 251], for which the values for the maximal response (Emax) in experiment [1] (setting [9]) and in experiment [3] (setting [11]) were 71.2% and 99%, respectively. The EC50 was 0.0305 nM in experiment [1] (setting [5]), more than 9950 nM in experiment [2] (setting [10]), more than 9950 nM in experiment [2] (setting [6]) and 0.338 nM in experiment [3] (setting [8]).
`CC[C@H](C)[C@H](NC(=O)[C@H](CC(C)C)NC(=O)[C@](C)(Cc1ccc(O)cc1)NC(=O)[C@@H](CCC(=O)O)NC(=O)[C@@H](NC(=O)[C@H](Cc1ccccc1)NC(=O)[C@H](CCC(=O)O)NC(=O)C(C)(C)NC(=O)[C@H](CCC(N)=O)NC(=O)[C@H](C)NC(=O)[C@H](CCCCNC(=O)COCCOCCNC(=O)COCCOCCNC(=O)CCCCCCCCCCCCC(=O)O)NC(=O)[C@H](CCCN)NC(=O)[C@H](CC(=O)O)NC(=O)[C@H](CC(C)C)NC(=O)[C@](C)(CC(C)C)NC(=O)[C@@H](NC(=O)[C@H](CO)NC(=O)[C@H](Cc1ccc(OC)cc1)NC(=O)[C@H](CC(=O)O)NC(=O)[C@H](CO)NC(=O)[C@@H](NC(=O)[C@](C)(Cc1ccccc1F)NC(=O)[C@@H](NC(=O)CNC(=O)[C@H](CCC(=O)O)NC(=O)C(C)(C)NC(=O)[C@@H](N)Cc1ccc(O)cc1)[C@@H](C)O)[C@@H](C)O)[C@@H](C)CC)[C@@H](C)CC)C(=O)N[C@@H](CCCCNC(=O)COCCOCCNC(=O)COCCOCCNC(=O)CCCCCCCCCCCCC(=O)O)C(=O)NCC(=O)NCC(=O)N1CCC[C@H]1C(=O)N[C@@H](CO)C(=O)N[C@@H](CO)C(=O)NCC(=O)N[C@@H](C)C(=O)N1CCC[C@H]1C(=O)N1CCC[C@H]1C(=O)N1CCC[C@H]1C(=O)N[C@@H](CO)C(N)=O` [Example 266] (H-Y[Aib]EGT[αMePhe(2-F)]TSDY(Me)SI[αMeL]LD[Orn]K([AEEA-AEEA-C14 diacid])AQ[Aib]EFI[dE][αMeY]LIK([AEEA-AEEA-C14 diacid])GGPSSGAPPPS-NH2): the maximal response (Emax) was determined as 82.7% in experiment [1] (setting [9]), 93.2% in experiment [1] (setting [11]), 97.6% in experiment [3] (setting [9]) and 90.5% in experiment [3] (setting [11]). Besides, the EC50 in experiment [1] (setting [5]) is 0.0136 nM; in experiment [2] (setting [10]), more than 9950 nM; in experiment [2] (setting [6]), more than 9950 nM; in experiment [3] (0.1% bovine casein and 1.0% human serum albumin) it was 5.83 nM.

The record behind these values is US20230265151A1, “GIP/GLP1 CO-AGONIST COMPOUNDS” (priority 2020, published 2023).
